# Tests used:
# [1] = target: 5-hydroxytryptamine receptor 2A (Sus scrofa, UniProt P50129); assay: (§1) Antagonist activity at serotonin 5HT2A receptor assessed as effect on 5HT-induced isometric contractile force in isolated rings of pig coronary artery; format: functional, tissue-based; conditions: read-out: pA2 (converted)
# D(1A) dopamine receptor = D(1A) dopamine receptor (Homo sapiens, UniProt P21728); assay: Displacement […] from human cloned dopamine D1 receptor
# D(2) dopamine receptor = D(2) dopamine receptor (Homo sapiens, UniProt P14416); assay: Displacement […] from human cloned dopamine D2L receptor
# [2] = target: 5-hydroxytryptamine receptor 2A (Sus scrofa) (UniProt P50129); assay: as §1; format: functional, tissue-based
# Chain of 5-hydroxytryptamine receptor 2A (Sus scrofa) (P50129 whole entry): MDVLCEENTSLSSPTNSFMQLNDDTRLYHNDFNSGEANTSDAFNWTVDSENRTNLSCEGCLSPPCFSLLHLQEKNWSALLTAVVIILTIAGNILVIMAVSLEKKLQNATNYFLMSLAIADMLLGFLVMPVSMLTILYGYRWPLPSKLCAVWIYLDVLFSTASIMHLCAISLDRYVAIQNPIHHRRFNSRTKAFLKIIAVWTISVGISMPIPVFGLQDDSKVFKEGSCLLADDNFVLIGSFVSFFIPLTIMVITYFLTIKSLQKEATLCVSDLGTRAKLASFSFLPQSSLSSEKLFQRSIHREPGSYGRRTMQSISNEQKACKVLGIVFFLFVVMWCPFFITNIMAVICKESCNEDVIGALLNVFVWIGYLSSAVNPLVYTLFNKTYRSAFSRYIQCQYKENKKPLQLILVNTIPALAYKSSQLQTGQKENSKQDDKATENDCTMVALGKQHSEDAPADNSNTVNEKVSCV
# Chain of D(1A) dopamine receptor (P21728 whole entry): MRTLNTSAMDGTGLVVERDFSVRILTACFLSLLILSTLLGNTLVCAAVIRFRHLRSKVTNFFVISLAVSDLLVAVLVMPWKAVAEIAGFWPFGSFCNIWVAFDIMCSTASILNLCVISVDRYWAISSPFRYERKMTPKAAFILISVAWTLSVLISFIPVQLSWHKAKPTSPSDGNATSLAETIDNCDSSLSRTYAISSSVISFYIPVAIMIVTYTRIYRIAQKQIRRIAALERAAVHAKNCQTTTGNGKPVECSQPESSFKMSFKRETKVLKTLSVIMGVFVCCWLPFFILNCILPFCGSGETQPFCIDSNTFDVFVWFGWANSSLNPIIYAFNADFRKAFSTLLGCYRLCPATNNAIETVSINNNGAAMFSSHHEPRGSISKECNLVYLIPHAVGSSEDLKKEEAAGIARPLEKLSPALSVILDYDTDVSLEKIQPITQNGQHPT
# Chain of D(2) dopamine receptor (P14416 whole entry): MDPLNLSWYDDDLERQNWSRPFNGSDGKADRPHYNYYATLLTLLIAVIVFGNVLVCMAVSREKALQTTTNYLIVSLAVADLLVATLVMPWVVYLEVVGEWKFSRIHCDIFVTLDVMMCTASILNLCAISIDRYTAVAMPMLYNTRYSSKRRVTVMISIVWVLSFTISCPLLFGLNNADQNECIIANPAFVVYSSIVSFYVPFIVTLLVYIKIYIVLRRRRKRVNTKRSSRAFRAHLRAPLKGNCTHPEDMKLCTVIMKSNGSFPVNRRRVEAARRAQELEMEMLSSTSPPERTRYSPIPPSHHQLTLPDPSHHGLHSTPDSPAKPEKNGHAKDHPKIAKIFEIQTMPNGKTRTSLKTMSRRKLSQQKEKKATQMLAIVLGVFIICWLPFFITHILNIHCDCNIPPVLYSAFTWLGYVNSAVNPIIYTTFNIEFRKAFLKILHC
# Chain of 5-hydroxytryptamine receptor 2A (P50129 whole entry): as the sequence (P50129 whole entry) above
Compound,Kb [1],Ki (D(1A) dopamine receptor),Ki (D(2) dopamine receptor),pD2 [2]
COc1ccc2c(c1)CCN(C)CCCc1ccccc1C2,3.39 nM,21.9 nM,–,–
CN1CCc2ccccc2Cc2[nH]c3ccccc3c2CC1,–,1.86 nM,41.7 nM,9.79
Oc1ccc2c(c1)CCNCCc1ccccc1C2,61.7 nM,63.1 nM,389 nM,–
CN1CCc2ccccc2Cc2[nH]c3ccc(O)cc3c2CC1,–,–,43.7 nM,9.97
COc1ccc2c(c1)CCCN(C)CCc1ccccc1C2,5.75 nM,28.2 nM,24.5 nM,–
CN1CCCc2ccccc2Cc2[nH]c3ccccc3c2CC1,–,2.04 nM,13.5 nM,9.77

# Now from value to compound, other results behind:
Kb [1],Ki (D(1A) dopamine receptor),Ki (D(2) dopamine receptor),Compound,pD2 [2]
0.646 nM,–,–,CN1CCc2ccccc2Cc2ccc(O)cc2CC1,–
3.98 nM,3.72 nM,77.6 nM,CCN1CCc2ccccc2Cc2ccc(O)cc2CC1,–
3.8 nM,158 nM,115 nM,CN1CCCc2c([nH]c3ccccc23)Cc2ccccc2CC1,–
1.32 nM,–,–,O=C(c1ccc(F)cc1)C1CCN(CCn2c(=O)[nH]c3ccccc3c2=O)CC1 [KETANSERIN],–
2.14 nM,2.67 nM,41.7 nM,CN1CCCc2ccccc2Cc2ccc(O)cc2CC1,–
2.04 nM,22.9 nM,–,COc1ccc2c(c1)CCN(C)CCc1ccccc1C2,–
0.891 nM,0.813 nM,3.55 nM,CN1CCc2ccccc2Cc2ccc(O)c(Cl)c2CC1,–

# — ChEMBL document CHEMBL1157471, “Dopamine/serotonin receptor ligands. Part 17: a cross-target SAR approach: affinities of azecine-styled ligands for 5-HT(2A) versus D1 and D2 receptors” (Bioorg Med Chem Lett, 2008)
